These results are taken from PubChem BioAssay (NCI).

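Dose response: 5 concentrations. Exposure: 48 h. Format: 96-well plates. Endpoint: linear interpolation; highest concentration if not reached. Definition used: TGI = concentration required for complete inhibition of growth.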

For the first experiment, the system named is NCI-H460 lung. Description: NCI anticancer screen, dose series, 48 h.
Consider `COc1ccc(CCN=C2OCc3ccccc32)cc1OC`, for which the TGI is more than 100 µM.

Regarding `CCCCn1c(C)c2c(c1C)C(=O)N(CC(O)CN1CCc3ccccc3C1)C2=O` (stereo not given), the TGI is more than 100 µM.

Molecule `Oc1ccc(-c2nc(-c3ccc(F)cc3)c(-c3ccc4ccccc4n3)[nH]2)cc1` returned a TGI of 18.4 µM.

On to `CC(=O)Nc1ccc(-c2nc3ccccc3s2)cc1`, for which the TGI was more than 100 µM.

In the case of `COc1ccc(-c2nc(SCC(=O)N/N=C/c3ccc(O)c(OC)c3)[nH]c2-c2ccc(OC)cc2)cc1`, the TGI is 75.6 µM.

Take `COC(=O)c1c(O)ccc2c1c1c(n2Cc2ccc(Cl)cc2Cl)C(=O)c2ccccc2C1`: the TGI was more than 100 µM.

The molecule `CC(/C=N\NC(=S)N1CCCCC1)=N/NC(=S)N1CCCCC1` displayed a TGI of 9.76 µM.

Molecule `CCOC(=O)c1cc(C2(O)CCN(CC(C)CC)C2=O)c(-c2cc(C)no2)[nH]1` (stereo not given) came in with a TGI of more than 100 µM.

For a further experiment, the system named is NCI-H522 lung. Description: NCI anticancer screen, dose series, 48 h.
With `CSc1ncnc2c1cnn2CCCCO`, the TGI is more than 100 µM.

Consider `CC(NNC(=O)CC(=O)N(C(=O)c1ccccc1)c1ccc(Cl)cc1)c1cc2ccccc2oc1=O` (stereo not given), for which the TGI is more than 10 µM.

Consider `COc1ccc(-c2c(C#N)c(O)n(NS(=O)(=O)c3ccc(C)cc3)c(=O)c2C#N)cc1`, for which the TGI was more than 100 µM.

On to `CN(CCN(C)C(=S)NN)C(=S)NN`, for which the TGI was more than 100 µM.

With `CSc1nncc2[nH]c(C)nc12`, the TGI was more than 100 µM.

In turn, `CCCCn1c(C)c2c(c1C)C(=O)N(CC(O)CN1CCc3ccccc3C1)C2=O` (stereo not given) showed a TGI of more than 100 µM.

The molecule `COc1ccc(-c2nc(SCC(=O)N/N=C/c3ccc(O)c(OC)c3)[nH]c2-c2ccc(OC)cc2)cc1` had a TGI of 53.8 µM.

In turn, `CC(/C=N\NC(=S)N1CCCCC1)=N/NC(=S)N1CCCCC1` displayed a TGI of 5.68 µM.

The next experiment deals with NCI/ADR-RES ovarian. Description: NCI anticancer screen, dose series, 48 h.
As to `CCOC(=O)c1csc(NC(=O)CN2CCN(C)CC2)n1`, the TGI is more than 100 µM.

Molecule `CC(NNC(=O)CC(=O)N(C(=O)c1ccccc1)c1ccc(Cl)cc1)c1cc2ccccc2oc1=O` (stereo not given) had a TGI of more than 10 µM.

In turn, `O=C(NC(CO)Cc1ccc(Oc2cc(CC(CO)NC(=O)OCc3ccccc3)ccc2OC(=O)OCc2ccccc2)cc1)OCc1ccccc1` (stereo not given) gave a TGI of more than 100 µM.

Molecule `COc1ccc(-c2c(C#N)c(O)n(NS(=O)(=O)c3ccc(C)cc3)c(=O)c2C#N)cc1` showed a TGI of more than 100 µM.

`CN1C(=O)C(CC=O)(C(C)(C)C)c2ccccc21` (stereo not given) showed a TGI of more than 100 µM.

The molecule `CSc1nncc2[nH]c(C)nc12` displayed a TGI of more than 100 µM.

The molecule `COc1ccc(CCN=C2OCc3ccccc32)cc1OC` gave a TGI of more than 100 µM.

For the molecule `CCCCn1c(C)c2c(c1C)C(=O)N(CC(O)CN1CCc3ccccc3C1)C2=O` (stereo not given), the TGI is more than 100 µM.

Regarding `Oc1ccc(-c2nc(-c3ccc(F)cc3)c(-c3ccc4ccccc4n3)[nH]2)cc1`, the TGI is 20.5 µM.

Turning to `CC(=O)Nc1ccc(-c2nc3ccccc3s2)cc1`, the TGI was more than 100 µM.

In the case of `COc1ccc(-c2nc(SCC(=O)N/N=C/c3ccc(O)c(OC)c3)[nH]c2-c2ccc(OC)cc2)cc1`, the TGI is more than 100 µM.

The molecule `COC(=O)c1c(O)ccc2c1c1c(n2Cc2ccc(Cl)cc2Cl)C(=O)c2ccccc2C1` returned a TGI of more than 100 µM.

In turn, `CC(/C=N\NC(=S)N1CCCCC1)=N/NC(=S)N1CCCCC1` gave a TGI of 6.9 µM.

On to `CCOC(=O)c1cc(C2(O)CCN(CC(C)CC)C2=O)c(-c2cc(C)no2)[nH]1` (stereo not given), for which the TGI is more than 100 µM.

In a further experiment the test system is OVCAR-5 ovarian. Description: NCI anticancer screen, dose series, 48 h.
`CCOC(=O)c1csc(NC(=O)CN2CCN(C)CC2)n1` had a TGI of more than 100 µM.

`CSc1ncnc2c1cnn2CCCCO`: the TGI was more than 100 µM.

The molecule `CC(NNC(=O)CC(=O)N(C(=O)c1ccccc1)c1ccc(Cl)cc1)c1cc2ccccc2oc1=O` (stereo not given) had a TGI of more than 10 µM.

In turn, `O=C(NC(CO)Cc1ccc(Oc2cc(CC(CO)NC(=O)OCc3ccccc3)ccc2OC(=O)OCc2ccccc2)cc1)OCc1ccccc1` (stereo not given) returned a TGI of more than 100 µM.

In turn, `COc1ccc(-c2c(C#N)c(O)n(NS(=O)(=O)c3ccc(C)cc3)c(=O)c2C#N)cc1` gave a TGI of more than 100 µM.

In the case of `CN1C(=O)C(CC=O)(C(C)(C)C)c2ccccc21` (stereo not given), the TGI is more than 100 µM.

`CN(CCN(C)C(=S)NN)C(=S)NN` displayed a TGI of more than 100 µM.

Molecule `CSc1nncc2[nH]c(C)nc12` gave a TGI of more than 100 µM.

`CCCCn1c(C)c2c(c1C)C(=O)N(CC(O)CN1CCc3ccccc3C1)C2=O` (stereo not given) gave a TGI of more than 100 µM.

Regarding `Oc1ccc(-c2nc(-c3ccc(F)cc3)c(-c3ccc4ccccc4n3)[nH]2)cc1`, the TGI is 39.8 µM.

The molecule `COc1ccc(-c2nc(SCC(=O)N/N=C/c3ccc(O)c(OC)c3)[nH]c2-c2ccc(OC)cc2)cc1` came in with a TGI of 63.7 µM.

`CC(/C=N\NC(=S)N1CCCCC1)=N/NC(=S)N1CCCCC1` registered a TGI of 21.8 µM.

Regarding `CCOC(=O)c1cc(C2(O)CCN(CC(C)CC)C2=O)c(-c2cc(C)no2)[nH]1` (stereo not given), the TGI was more than 100 µM.

The subject of a further experiment is OVCAR-8 ovarian. Description: NCI anticancer screen, dose series, 48 h.
`CCOC(=O)c1csc(NC(=O)CN2CCN(C)CC2)n1` showed a TGI of more than 100 µM.

`CC(NNC(=O)CC(=O)N(C(=O)c1ccccc1)c1ccc(Cl)cc1)c1cc2ccccc2oc1=O` (stereo not given) came in with a TGI of more than 10 µM.

As to `O=C(NC(CO)Cc1ccc(Oc2cc(CC(CO)NC(=O)OCc3ccccc3)ccc2OC(=O)OCc2ccccc2)cc1)OCc1ccccc1` (stereo not given), the TGI turned out to be 40.6 µM.

Turning to `COc1ccc(-c2c(C#N)c(O)n(NS(=O)(=O)c3ccc(C)cc3)c(=O)c2C#N)cc1`, the TGI was more than 100 µM.

The molecule `CSc1nncc2[nH]c(C)nc12` showed a TGI of more than 100 µM.

`COc1ccc(CCN=C2OCc3ccccc32)cc1OC` displayed a TGI of more than 100 µM.

On to `CCCCn1c(C)c2c(c1C)C(=O)N(CC(O)CN1CCc3ccccc3C1)C2=O` (stereo not given), for which the TGI is more than 100 µM.

As for `Oc1ccc(-c2nc(-c3ccc(F)cc3)c(-c3ccc4ccccc4n3)[nH]2)cc1`, the TGI is 32 µM.

For `CC(=O)Nc1ccc(-c2nc3ccccc3s2)cc1`, the TGI is more than 100 µM.

`COc1ccc(-c2nc(SCC(=O)N/N=C/c3ccc(O)c(OC)c3)[nH]c2-c2ccc(OC)cc2)cc1` yielded a TGI of more than 100 µM.

`COC(=O)c1c(O)ccc2c1c1c(n2Cc2ccc(Cl)cc2Cl)C(=O)c2ccccc2C1` yielded a TGI of more than 100 µM.

On to `CC(/C=N\NC(=S)N1CCCCC1)=N/NC(=S)N1CCCCC1`, for which the TGI stood at 16.1 µM.

`CCOC(=O)c1cc(C2(O)CCN(CC(C)CC)C2=O)c(-c2cc(C)no2)[nH]1` (stereo not given) yielded a TGI of more than 100 µM.

For the next experiment, the system named is SF-295 CNS. Description: NCI anticancer screen, dose series, 48 h.
`CCOC(=O)c1csc(NC(=O)CN2CCN(C)CC2)n1`: the TGI is more than 100 µM.

Molecule `CSc1ncnc2c1cnn2CCCCO` registered a TGI of more than 100 µM.

Take `CC(NNC(=O)CC(=O)N(C(=O)c1ccccc1)c1ccc(Cl)cc1)c1cc2ccccc2oc1=O` (stereo not given): the TGI is more than 10 µM.

`O=C(NC(CO)Cc1ccc(Oc2cc(CC(CO)NC(=O)OCc3ccccc3)ccc2OC(=O)OCc2ccccc2)cc1)OCc1ccccc1` (stereo not given): the TGI was found to be 35.2 µM.

In the case of `COc1ccc(-c2c(C#N)c(O)n(NS(=O)(=O)c3ccc(C)cc3)c(=O)c2C#N)cc1`, the TGI was more than 100 µM.

For the molecule `CN1C(=O)C(CC=O)(C(C)(C)C)c2ccccc21` (stereo not given), the TGI is more than 100 µM.

Molecule `CN(CCN(C)C(=S)NN)C(=S)NN` yielded a TGI of more than 100 µM.

For `CSc1nncc2[nH]c(C)nc12`, the TGI was more than 100 µM.

`COc1ccc(CCN=C2OCc3ccccc32)cc1OC` came in with a TGI of more than 100 µM.

Regarding `CCCCn1c(C)c2c(c1C)C(=O)N(CC(O)CN1CCc3ccccc3C1)C2=O` (stereo not given), the TGI is more than 100 µM.

For `Oc1ccc(-c2nc(-c3ccc(F)cc3)c(-c3ccc4ccccc4n3)[nH]2)cc1`, the TGI amounted to 24 µM.

`CC(=O)Nc1ccc(-c2nc3ccccc3s2)cc1` yielded a TGI of more than 100 µM.

In the case of `COc1ccc(-c2nc(SCC(=O)N/N=C/c3ccc(O)c(OC)c3)[nH]c2-c2ccc(OC)cc2)cc1`, the TGI turned out to be 46.5 µM.

Take `CC(/C=N\NC(=S)N1CCCCC1)=N/NC(=S)N1CCCCC1`: the TGI was determined as 14.4 µM.
